Laboratory results reported in patent US12617770B2, “IRAK inhibitor and preparation method therefor and use thereof” (WUHAN CREATERNA SCIENCE AND TECHNOLOGY CO., LTD., priority 2019, dated 2026).

Assays:
[1] = biological target: T1, hERG potassium ion channel (Homo sapiens, UniProt Q12809); test: hERG whole-cell patch clamp in HEK-293 cell line stably expressing hERG; format: cell-based; details: HEK-293 cells stably expressing hERG, pH 7.4, HEK-293 cells expressing hERG, mean ± spread
T1 construct: expressed in transfected cells; host or cells: HEK-293
Experimental: The working solutions of the test compounds were ultrasonically treated for 20 min.
Patch clamping: Under an inverted microscope, recording electrodes were controlled by micromanipulator to contact with the cell. A negative voltage was applied to create a G-omega shaped connection. After forming the G-omega shaped connection, a rapid capacitance compensation was given. Under the continuous negative voltage, the cell membrane was ruptured to form a whole-cell recording configuration. In the whole-cell recording configuration, slow capacitance compensation was given, and the values of membrane capacitance and series resistance were recorded. […]
The cover glasses planted with cells were placed in the recording chamber of an inverted microscope. […] The current detected in a cell in the negative control was used as the background for the cell. […]
[formula] Basic statistics were calculated for each concentration, including mean, standard deviation (SD), standard error (SE), and replicates (n). The dose-dependent curve was fitted with the following equation and the half maximal inhibitory concentration (IC50) of the test compounds was calculated: […]

[2] = Pharmacokinetic study, single oral gavage dosing; format: in vivo; details: mouse, 40 mg/kg, 40 mpk, 15% solutol HS15 + 85% PBS, ICR mice, plasma; for AUC(0-t): read-out: Area under curve AUC0-t; for AUC(0-inf): read-out: Area under curve AUC0-∞; for MRT: read-out: Average retention time MRT; for half-life: read-out: Half life t1/2 (converted); for Cmax: read-out: Peak concentration Cmax; for Tmax: read-out: Time to peak tmax
CYP3A4 = biological target: T2, CYP3A4 (Homo sapiens, UniProt P08684); test: CYP450 inhibition in human liver microsomes, CYP3A4-M; format: in vitro ADME; details: pooled (mixed) human liver microsomes, probe midazolam; human liver microsomes, midazolam; read-out: CYP3A4 IC50
T2 construct: The test compounds were co-incubated with the human liver microsomes and a probe substrate midazolam (CYP3A4); tissue Corning (USA); host or cells: mixed (pooled) human liver microsomes
Experimental: (§1) This study was intended to investigate the inhibitory effect of the test compounds on 5 major enzymes in human P450 superfamily, CYP1A2, 2C9, 2C19, 2D6 and 3A4-M. The mixed human liver microsomes used in this assay were purchased from Corning (USA). The test compound (compound 14) was co-incubated at 7 concentrations with human liver microsomes and five probe substrates (phenacetin for CYP1a2, diclofenac for CYP2C9, mephenytoin for CYP2C19, dextromethorphan for CYP2D6, midazolam for CYP3A4-M, mixed). The reaction was initiated by adding coenzyme NADPH, and terminated by adding acetonitrile containing internal standard. After the proteins were precipitated, the supernatant was centrifuged. The characteristic metabolites in the supernatant (acetaminophen for CYP1A2, 4-hydroxydiclofenac for CYP2C9, 4-hydroxymephenytoin for CYP2C19, dextrorphan for CYP2D6, 1-hydroxymidazolam for CYP3A4-M) were analyzed by LC-MS/MS. The influence of the test compounds on production of the characteristic metabolites was finally analyzed on the basis of the data obtained. A selective inhibitor (ketoconazole for CYP3A4-M) may be used as positive control. All samples were tested in duplicate.

CYP2D6 = biological target: T3, CYP2D6 (Homo sapiens, UniProt P10635); test: CYP450 inhibition in human liver microsomes, CYP2D6; format: in vitro ADME; details: pooled (mixed) human liver microsomes, probe dextromethorphan; human liver microsomes, dextromethorphan; read-out: CYP2D6 IC50
T3 construct: co-incubated at 7 concentrations with human liver microsomes and five probe substrates; tissue Corning (USA); host or cells: mixed (pooled) human liver microsomes
Experimental: as §1

[3] = Plasma protein binding (PPB), equilibrium dialysis, human plasma; format: in vitro ADME; details: 5 h at 37° C., read-out: Plasma protein binding (Bound %) Human (converted)
Experimental: The experiment is intended to determine plasma protein binding (PPB) data of the test compounds disclosed herein.
In the PPB experiment, the final administration matrix contained the test compound or a reference compound with a concentration of 1 μM and DMSO with a content of 0.2%.
Collecting samples in initial time: 25 μL of the matrix containing the compound was added into a blank 96-well collecting plate, and the plate was stored at −20° C.
An equilibrated dialysis device was prepared. 100 μL of buffer was added to the receiving side of the equilibrium dialysis plate. Then 100 μL of the administration matrix containing the compound or the reference compound was added into an administration side of the equilibrium dialysis plate. The prepared equilibrium dialysis plate was placed in a 37° C. shaker to be shaken for 5 h at 60 rpm.
Sample was prepared at the end of cultivation (5 h): Preparing sample in the receiving side: 25 μL of sample from a receiving side was taken out and placed in a 96-well sample collecting plate, and 25 μL of a corresponding matrix (blank plasma) was added for mixing: 200 μL of ACN containing an internal standard was added, shaken for 10 minutes at 600 rpm, and centrifuged at 5594 g for 15 min.
Preparing sample in the administration side: 25 μL of the sample containing test compound and reference compound from the administration side was taken out and 25 μL of a blank buffer was added for mixing; 200 μL of ACN containing an internal standard was added, shaken for 10 minutes at 600 rpm, and centrifuged at 5594 g for 15 min.
Preparing sample in initial time: the sample containing test compound and reference compound was re-melted at 37° C. in initial time and then mixed with the corresponding matrix (blank buffer) in the same volume (25 μL); 200 μL of ACN containing an internal standard was added, shaken for 10 minutes at 600 rpm, and centrifuged at 5594 g for 15 min.
After all the samples were centrifuged, 50 μL of a supernatant was taken and added into 50 μL of ultrapure water for mixing, and the samples were sent to liquid chromatography-mass spectrometry.

CYP2C9 = biological target: T4, CYP2C9 (Homo sapiens, UniProt P11712); test: CYP450 inhibition in human liver microsomes, CYP2C9; format: in vitro ADME; details: pooled (mixed) human liver microsomes, probe diclofenac
T4 construct: co-incubated at 7 concentrations with human liver microsomes and five probe substrates; tissue Corning (USA); host or cells: mixed (pooled) human liver microsomes
Experimental: as §1

T3 sequence (P10635 whole entry): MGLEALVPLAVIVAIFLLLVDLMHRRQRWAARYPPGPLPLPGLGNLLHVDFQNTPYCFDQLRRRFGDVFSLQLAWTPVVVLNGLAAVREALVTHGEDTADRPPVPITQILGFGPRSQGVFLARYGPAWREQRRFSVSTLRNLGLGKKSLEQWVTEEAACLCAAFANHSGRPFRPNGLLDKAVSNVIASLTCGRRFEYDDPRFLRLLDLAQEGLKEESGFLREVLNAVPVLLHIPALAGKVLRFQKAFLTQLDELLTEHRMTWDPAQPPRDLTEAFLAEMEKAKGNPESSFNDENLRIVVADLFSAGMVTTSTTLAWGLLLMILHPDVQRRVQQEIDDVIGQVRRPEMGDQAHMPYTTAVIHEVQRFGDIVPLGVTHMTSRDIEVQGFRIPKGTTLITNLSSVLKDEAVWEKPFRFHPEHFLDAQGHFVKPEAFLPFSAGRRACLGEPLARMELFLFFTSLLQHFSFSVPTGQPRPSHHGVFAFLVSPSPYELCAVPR
T4 sequence (P11712 whole entry): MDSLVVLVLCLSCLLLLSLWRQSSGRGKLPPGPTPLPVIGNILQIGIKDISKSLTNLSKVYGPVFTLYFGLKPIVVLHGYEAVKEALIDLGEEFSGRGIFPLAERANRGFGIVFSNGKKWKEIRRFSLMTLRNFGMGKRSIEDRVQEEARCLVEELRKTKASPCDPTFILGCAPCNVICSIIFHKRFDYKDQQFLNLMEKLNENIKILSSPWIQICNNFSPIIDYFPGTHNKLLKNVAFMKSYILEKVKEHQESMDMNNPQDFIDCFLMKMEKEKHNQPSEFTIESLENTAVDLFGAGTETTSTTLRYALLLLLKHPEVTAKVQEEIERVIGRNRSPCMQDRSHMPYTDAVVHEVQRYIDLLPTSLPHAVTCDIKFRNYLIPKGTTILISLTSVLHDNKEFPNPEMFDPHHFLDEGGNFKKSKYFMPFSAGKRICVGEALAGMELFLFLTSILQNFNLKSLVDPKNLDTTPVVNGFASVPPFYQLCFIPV
T1 sequence (Q12809 whole entry): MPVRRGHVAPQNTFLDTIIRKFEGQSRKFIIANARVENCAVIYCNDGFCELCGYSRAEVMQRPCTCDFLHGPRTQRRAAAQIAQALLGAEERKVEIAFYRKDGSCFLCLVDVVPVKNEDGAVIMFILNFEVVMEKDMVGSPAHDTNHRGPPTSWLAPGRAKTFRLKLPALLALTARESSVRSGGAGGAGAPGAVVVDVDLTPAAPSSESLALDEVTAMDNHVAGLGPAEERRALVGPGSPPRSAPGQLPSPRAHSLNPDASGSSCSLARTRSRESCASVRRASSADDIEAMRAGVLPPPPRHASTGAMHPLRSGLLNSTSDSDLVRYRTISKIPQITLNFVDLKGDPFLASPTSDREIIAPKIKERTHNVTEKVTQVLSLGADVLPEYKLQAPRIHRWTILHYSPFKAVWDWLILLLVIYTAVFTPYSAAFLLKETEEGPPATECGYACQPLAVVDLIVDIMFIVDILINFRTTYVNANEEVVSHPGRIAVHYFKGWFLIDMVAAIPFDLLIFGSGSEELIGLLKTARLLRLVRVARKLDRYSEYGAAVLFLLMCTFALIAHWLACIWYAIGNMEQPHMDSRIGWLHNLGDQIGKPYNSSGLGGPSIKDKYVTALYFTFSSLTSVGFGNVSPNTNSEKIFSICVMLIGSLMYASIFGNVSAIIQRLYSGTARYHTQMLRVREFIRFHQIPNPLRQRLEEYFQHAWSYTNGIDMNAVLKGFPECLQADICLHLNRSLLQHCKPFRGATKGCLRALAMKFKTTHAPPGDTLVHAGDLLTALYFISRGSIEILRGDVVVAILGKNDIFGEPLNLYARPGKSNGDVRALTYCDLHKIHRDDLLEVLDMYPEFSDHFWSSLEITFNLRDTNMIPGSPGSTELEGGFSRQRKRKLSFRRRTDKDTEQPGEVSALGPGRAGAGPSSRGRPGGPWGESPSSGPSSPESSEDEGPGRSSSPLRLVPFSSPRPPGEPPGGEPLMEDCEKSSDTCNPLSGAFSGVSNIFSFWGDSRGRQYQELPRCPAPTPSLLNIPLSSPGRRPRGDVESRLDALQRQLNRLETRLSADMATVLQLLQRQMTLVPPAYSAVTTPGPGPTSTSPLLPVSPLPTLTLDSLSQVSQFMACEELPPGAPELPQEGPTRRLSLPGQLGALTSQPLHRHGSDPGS
T2 sequence (P08684 whole entry): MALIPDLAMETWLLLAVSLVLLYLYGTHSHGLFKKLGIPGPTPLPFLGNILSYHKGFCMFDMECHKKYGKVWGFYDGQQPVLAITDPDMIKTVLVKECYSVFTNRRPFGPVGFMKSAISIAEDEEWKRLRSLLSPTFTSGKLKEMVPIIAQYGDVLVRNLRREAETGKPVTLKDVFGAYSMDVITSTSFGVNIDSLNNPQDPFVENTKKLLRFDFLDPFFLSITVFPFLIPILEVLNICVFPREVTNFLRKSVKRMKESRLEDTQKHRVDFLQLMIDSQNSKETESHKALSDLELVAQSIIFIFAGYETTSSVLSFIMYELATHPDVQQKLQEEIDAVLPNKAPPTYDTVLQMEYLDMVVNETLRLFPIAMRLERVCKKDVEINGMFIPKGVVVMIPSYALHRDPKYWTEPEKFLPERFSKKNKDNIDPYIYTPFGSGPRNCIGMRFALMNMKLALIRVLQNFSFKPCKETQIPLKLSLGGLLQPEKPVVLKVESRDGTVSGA

SMILES | inhibition at 5 min, 30 µM [1] [%] | AUC(0-t) [2] [µg·h/mL] | AUC(0-inf) [2] [µg·h/mL] | MRT [2] [h] | half-life [2] [h] | Cmax [2] [ng/mL] | Tmax [2] [h] | IC50 (CYP3A4) [µM] | IC50 (CYP2D6) [µM] | fraction unbound at 5 h, 1 μM [3] | IC50 (CYP2C9) [µM]
COc1cc2nn([C@H]3CC[C@](C)(O)CC3)cc2cc1NC(=O)c1cccc(C)[n+]1[O-] [Compound 001, 2-((2-((1r,4r)-4-hydroxy-4-methylcyclohexyl)-6-methoxy-2H-indazol-5-yl)carbamoyl)-6-methylpyridine 1-oxide] | 5.09 | 294 | 375 | 15.3 | 11.5 | 24200 | 4 | > 30 | > 30 | 0.19 | > 30
COc1cc2nn(CCC(C)(C)O)cc2cc1NC(=O)c1cccc(C)[n+]1[O-] [Compound 163, 2-((2-(3-hydroxy-3-methylbutyl)-6-methoxy-2H-indazol-5-yl)carbamoyl)-6-methylpyridine 1-oxide] | 8.73 | 207 | 207 | 6.75 | 3.62 | 25900 | 4 | > 30 | > 30 | 0.183 | > 30
